Drawing on ChEMBL document CHEMBL3877284, “Discovery of novel dengue virus NS5 methyltransferase non-nucleoside inhibitors by fragment-based drug design” (Eur J Med Chem, 2017), this text covers IC50 and Activity for 9 compounds.

Data set [1] is described as follows: Inhibition of Dengue virus 3 NS5 2'-O-MTase activity assessed as reduction in [3H]AdoMet transfer to 7MeGpppAC4 capped RNA substrate after 30 mins by microbeta liquid scintillation counting method. Further details: species or system dengue virus type 3.
Data set [2] in a line: Inhibition of West Nile virus Uganda strain B956 NS5 2'-O-MTase activity assessed as reduction in [3H]AdoMet transfer to 7MeGpppAC4 capped RNA substrate after 30 mins by microbeta liquid scintillation counting method.
Data set [3] can be described thus: Inhibition of Dengue virus 3 NS5 N7-MTase activity assessed as reduction in [3H]AdoMet transfer to GpppA2'OMe-RNA74 substrate after 30 mins by microbeta liquid scintillation counting method. Further details: species or system dengue virus type 3.
Data set [4] concerns dengue virus type 3. Briefly: Binding affinity to Dengue virus 3 NS5 methyl transferase domain by thermal shift assay.
Data set [5] can be described thus: Cytotoxicity against African green monkey Vero E6 cells up to 100 uM. The format is toxicity, cell-based. As to conditions: chlorocebus sabaeus.

Calls of active or inactive are those of the source. The rule behind the calls is not given here.

What is called IC50 is the concentration that inhibits the measured activity by half. Turning to `Nc1cc(Cl)ccc1NC(=O)Nc1cccc(S(=O)(=O)Nc2ccc(C(=O)O)cc2)c1`, the results for the concentration for half-maximal inhibition (IC50) in data set [1], in data set [2] and in data set [3] were 452 µM, 182 µM and above 1000 µM, respectively.
Consider `Cc1ccc(C(=O)O)c(N)c1`, for which the IC50 in data set [1] stood at 2800 µM. The result in data set [4] was Active.
In the same order, the values of `Nc1ccc(C(F)(F)F)cc1N` are 9000 µM and “Active”.
As for `Nc1cc(Cl)ccc1NC(=O)Nc1cccc(S(=O)(=O)Oc2ccc(C(=O)O)cc2)c1`, the IC50 is 369 µM in data set [1], 120 µM in data set [2] and above 1000 µM in data set [3].
As to `Nc1cc(C(F)(F)F)ccc1NC(=O)Nc1ccc(S(=O)(=O)Nc2ccc(C(=O)O)cc2)cc1`, the Activity result in data set [5] was “Non-Toxic”. The values for the IC50 in data set [1], in data set [2] and in data set [3] were 110 µM, 71 µM and 742 µM, respectively.
The like results for `Nc1cc(C(F)(F)F)ccc1NC(=O)Nc1cccc(S(=O)(=O)Nc2ccc(C(=O)O)cc2)c1` were, in that order, “Non-Toxic”, 91 µM, 51 µM and 1120 µM.
For the compound `Cc1cc(N)c(N)cc1Cl`, the IC50 in data set [1] was 9300 µM. In addition, in data set [4], the result was Active.
Turning to `Nc1cc(Cl)ccc1NC(=O)Nc1ccc(S(=O)(=O)Nc2ccc(C(=O)O)cc2)cc1`, the IC50 in data set [1] was 435 µM; in data set [2], 299 µM; in data set [3], above 1000 µM.
As for `Nc1cc(Cl)ccc1NC(=O)Nc1ccc(S(=O)(=O)Oc2ccc(C(=O)O)cc2)cc1`, the half-inhibitory concentration (IC50) is 368 µM in data set [1], 190 µM in data set [2] and above 1000 µM in data set [3].
